Read-outs that look alike come from different tables or passages of the source.
Legend:
[1] = In vivo tissue uptake, tumor versus muscle; conditions: 10 mg/kg i.v.; transferrin 1 mg/kg
Description: Transferrin was dissolved in 40% PG in phosphate buffer (pH=7.0)+100 mM NaCl (0.1 mg/100 uL) and added to the photosensitizer solution (to achieve 10 mg/kg dose). The mixture was incubated for 1 hour prior to injection, and 100 uL of the mixture was injected i.v. to each animal.

[2] = Fluorescence with and without transferrin; format: physicochemical; conditions: for fluorescence emission maximum: 10 uM
Description: Fluorescence of TLD1433 (10 uM) was measured quartz cuvettes without Tf (in water) and in the presence of 0.2 mg/mL Tf (in phosphate buffer+100 mM NaCl, pH=7.0). Fluorescence was measured at different excitation wavelengths (380, 400, 450, 470, 500 nm).
Fluorescence of TLDOsH2dppn (10 uM) was measured quartz cuvettes without Tf (in water) and in the presence of 0.2 mg/mL Tf (in phosphate buffer+100 mM NaCl, pH=7.0). Fluorescence was measured at different excitation wavelengths (380, 400, 450, 470, 500 nm).

AY27 cancer cell line = assay: In vitro PDT in hypoxia; format: cell-based; conditions: 635 nm, 90 J cm−2, hypoxic 0.5-0.1% O2, 0.4 mg/mL human transferrin
Description: The cells were incubated for 90 minutes in premix of the photosensitizer and 0.4 mg/mL human transferrin (or without transferrin, as a control group) as described above for in vitro PDT. Dark toxicity and PDT effect of the photosensitizers on AY27 cell line under 635 nm (90 J cm−2) irradiation in the absence and presence of transferrin in normoxic (FIGS. 17A, 17B) and hypoxic (0.5-0.1% O2, FIGS. 17C, 17D) conditions. The cells were incubated with the photosensitizer and transferrin for 90 minutes. After that, the cells were irradiated and the medium was replaced with a fresh one (without photosensitizer and transferrin). On the next day (21 hours post-irradiation), viability of the cells was measured using Presto Blue viability assay, and percent of cell kill was calculated. The PDT effect shown is a result of subtraction of “photosensitizer alone” and “light alone” cell kill from the total PDT cell kill.
The cells were incubated for 90 minutes in premix of the photosensitizer and 0.4 mg/mL human transferrin (or without transferrin, as a control group) as described above for in vitro PDT. […] On the next day (21 hours post-irradiation), viability of the cells was measured using Presto Blue viability assay, and percent of cell kill was calculated. […]

Subcutaneous tumors = assay: In vivo PDT of subcutaneous tumors in mouse thighs
Description: Subcutaneous tumors were grown in mouse thighs and PDT (808 nm, 600 Jcm^−2) was performed when tumor reached 5×5 mm in size. Mice were sacrificed if tumor continued to grow after PDT treatment and reached 10×10 mm.
Subcutaneous tumors were grown in mouse thighs and PDT (635 nm, 192 Jcm^−2) was performed when tumor reached 5×5 mm in size. Mice were sacrificed if tumor continued to grow after PDT treatment and reached 10×10 mm.
Subcutaneous tumors were grown in mouse thighs and PDT (525 nm, 90 Jcm^−2) was performed when tumor reached 5×5 mm in size. Mice were sacrificed if tumor continued to grow after PDT treatment and reached 10×10 mm.

Transferrin = Transferrin (Homo sapiens, UniProt P02787); assay: Binding to transferrin by absorption spectra; conditions: transferrin 0.2 mg/mL; photosensitizer 10 uM
Sequence of Transferrin (P02787 20-698): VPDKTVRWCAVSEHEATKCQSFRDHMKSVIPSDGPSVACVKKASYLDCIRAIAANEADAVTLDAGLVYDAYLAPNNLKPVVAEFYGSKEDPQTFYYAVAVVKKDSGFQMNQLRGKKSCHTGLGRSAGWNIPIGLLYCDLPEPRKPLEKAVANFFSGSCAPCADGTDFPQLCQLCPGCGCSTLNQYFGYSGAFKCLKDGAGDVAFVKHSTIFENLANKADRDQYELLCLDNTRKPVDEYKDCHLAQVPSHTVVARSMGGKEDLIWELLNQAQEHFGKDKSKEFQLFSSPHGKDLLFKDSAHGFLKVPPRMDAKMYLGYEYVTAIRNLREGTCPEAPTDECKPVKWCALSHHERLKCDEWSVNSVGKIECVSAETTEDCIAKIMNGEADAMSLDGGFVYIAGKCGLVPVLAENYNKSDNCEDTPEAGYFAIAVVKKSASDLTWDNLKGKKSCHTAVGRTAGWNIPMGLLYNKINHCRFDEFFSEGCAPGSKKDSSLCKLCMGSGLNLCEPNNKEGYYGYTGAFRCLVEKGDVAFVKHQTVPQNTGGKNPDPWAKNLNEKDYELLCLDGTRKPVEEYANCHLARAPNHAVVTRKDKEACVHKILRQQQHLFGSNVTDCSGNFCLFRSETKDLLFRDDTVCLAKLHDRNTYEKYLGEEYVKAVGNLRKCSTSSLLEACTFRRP
Description: Transferrin (0.2 mg/mL) was incubated with the photosensitizers (10 uM) and absorption spectra were obtained.
Binding of Ruthenium and Ruthenium-Rhodium-based photosensitizers to transferrin is characterized by a characteristic signature: an increased peak of absorption at 280 nm and a new peak in 400-500 nm range.

normal human fibroblasts = assay: Uptake by normal cells by ICP-MS; format: cell-based; conditions: 200 uM, 0.8 mg/mL transferrin, 4 hours, much lesser extent than cancer cells
Description: Cell culture (normal human fibroblasts) was exposed to 200 uM of the photosensitizer without additional transferrin and in the presence of 0.8 mg/mL transferrin for 4 hours. The incubation mix was washed away and the cells were collected, counted, and lysed. Lysed solution was dissolved in nitric acid and appropriate metals concentration was measured using inductively coupled plasma mass spectrometry. The metals concentration is directly proportional to the concentration of the photosensitizer.

[Os+2].c1ccc2cc3nc4c5cccnc5c5ncccc5c4nc3cc2c1.c1ccc2nc(-c3ccc4ccccc4n3)ccc2c1.c1ccc2nc(-c3ccc4ccccc4n3)ccc2c1 [TLDOsH2dppn]
uptake of the photosensitizer into tissues, effect of transferrin [1]: increases uptake
fluorescence emission maximum ([2]; 0.2 mg/mL transferrin): 650 nm
fluorescence emission maximum ([2]; no transferrin (in water)): 660 nm
fluorescence in the presence of transferrin ([2]; 0.2 mg/mL transferrin, especially at 470 nm excitation): strongly increased
PDT effect under hypoxic conditions, effect of transferrin (AY27 cancer cell line): ensured PDT effect
Survival by day 80 (Subcutaneous tumors; PDT 525 nm, 90 Jcm−2, with transferrin): 78%
Survival by day 80 (Subcutaneous tumors; PDT 525 nm, 90 Jcm−2, without transferrin): 37%
Survival by day 80 (Subcutaneous tumors; PDT 635 nm, 192 Jcm−2, with transferrin): 75%
Survival by day 80 (Subcutaneous tumors; PDT 635 nm, 192 Jcm−2, without transferrin): 35%
Survival by day 80 (Subcutaneous tumors; PDT 808 nm, 600 Jcm−2, with transferrin): 80%
Survival by day 80 (Subcutaneous tumors; PDT 808 nm, 600 Jcm−2, without transferrin): 40%
Therapeutic Ratio (U87 cells; 530 nm, 90 J cm−2, no transferrin): 1307.3
Therapeutic Ratio (U87 cells; 530 nm, 90 J cm−2, transferrin): 5238.0
Therapeutic Ratio (U87 cells; 650 nm, 90 J cm−2, no transferrin): 15.3
Therapeutic Ratio (U87 cells; 650 nm, 90 J cm−2, transferrin): 50.3
transferrin binding (absorption spectra) (Transferrin): transferrin binding
cellular accumulation in normal cells, effect of transferrin (normal human fibroblasts): higher in the presence of transferrin
